Measured values reported in US8193378B2, “2H-chromene compound and derivative thereof” (Astellas Pharma Inc., priority 2008, dated 2012).
Where two headings read alike, the source gives them in different places.

Tests used:
[1] = system: peripheral blood lymphocytes; assay: Reduction of number of peripheral blood lymphocytes in rat (Test Example 2); format: in vivo; conditions: Lymphocyte, male Lewis rats, oral
Procedure: Evaluation of Reduction of Number of Peripheral Blood Lymphocytes in Rat
The action on the peripheral blood lymphocytes were evaluated using rats. 6- to 10-week-old male Lewis rats (Japan Charles River Laboratories Japan, Inc.) were randomly divided into groups (n=3), and the compound of the present invention was suspended in 0.5% methyl cellulose-containing distilled water, and orally administered with a sonde. At 4 hours or 24 hours after administration, 0.2 ml of blood was collected from the ocular fundus under ether anesthesia. To the blood sample were immediately added EDTA.4K and heparin to prevent clotting, and the number of the lymphocytes in blood was measured with an automatic hematocyte analyzer (Sysmex Corp.; XT-2000i). For the reduction of the number of the lymphocytes in peripheral blood by the compound of the present invention, the percentage with the number of the lymphocytes in groups administered with 0.5% methyl cellulose-containing distilled water being set at 100%, as performed at the same time, were used, and the dose to cause 50% reduction of the number of the lymphocytes in the peripheral blood by administration of the compound of the present invention was defined as an ED50 value (mg/kg).

[2] = target: T1, human S1P1 (Homo sapiens, UniProt P21453); assay: GTP[γ-35S] binding assay using membrane of human S1P1 expressing cell (Test Example 1, Method 1); format: biochemical; conditions: method 1, GTP[γ-35S] binding, membrane of human S1P1 expressing CHO cell (values without *); read-out: A: EC50, in vitro S1P1 agonist action
T1 construct: expressed in transfected cells; membrane fraction used
T1 sequence (P21453 whole entry): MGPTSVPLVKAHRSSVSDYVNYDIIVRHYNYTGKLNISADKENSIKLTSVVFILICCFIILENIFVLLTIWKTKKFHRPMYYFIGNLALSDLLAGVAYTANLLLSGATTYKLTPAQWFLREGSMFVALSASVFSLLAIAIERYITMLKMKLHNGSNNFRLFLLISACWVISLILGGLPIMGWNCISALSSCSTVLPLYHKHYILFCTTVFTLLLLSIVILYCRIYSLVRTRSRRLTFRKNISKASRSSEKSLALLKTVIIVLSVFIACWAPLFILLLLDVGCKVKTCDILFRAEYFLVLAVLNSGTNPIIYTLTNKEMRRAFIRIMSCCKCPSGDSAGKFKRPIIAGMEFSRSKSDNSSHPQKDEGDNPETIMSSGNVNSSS
Procedure: (§1) Evaluation of In Vitro S1P1 Receptor Agonist Activity in Biological Body
(Method 1) Method for Evaluation on Receptor Agonist Action by GTP[γ-^35S] Binding Assay Using Membrane of Human S1P1 Expressing Cell
The in vitro S1P1 agonist action of the compound of the present invention was evaluated by the increase in the functional binding activity of GTP[γ-^35S] to G-protein using the membrane of a human S1P1 expressing cell. A cDNA encoding a human S1P1 was cloned from a human colorectal cDNA library and introduced to an expression vector pcDNA3.1 to construct a S1P1-pcDNA3.1. Then, by Lipofectamine 2000 (GIBCO), the S1P1-pcDNA3.1 was transfected into a CHO cell, and cultured in a Ham's F-12 culture medium containing 10% fetal bovine serum, 100 U/mL penicillin, 100 μg/mL streptomycin, and 1 mg/mL G418 disulfate, to obtain a stable, G418-resistant strain. The cultured human S1P1 expressing cells were isolated in a 1 mM EDTA.2Na-containing PBS, and disrupted under ice-cooling by a homogenizer made of glass in a 1 mM Tris HCl (pH 7.4) buffer solution containing 0.1 mM EDTA and a protein inhibitor. It was centrifuged at […], and a supernatant was further centrifuged at 4° C. for 60 min at 100,000×g, and suspended in a 10 mM Tris HCl (pH 7.4) buffer solution containing 1 mM EDTA to purify the membrane. The obtained membrane (0.13 mg/mL) and […] GTP[γ-^35S] […] The filter plate was dried at 50° C. for 60 min, and Microscinti-o (Packard) was added thereto for measurement by a liquids scintillation counter for a microplate (Packard, TOP count). For evaluation of the human S1P1 agonist action of the compound of the present invention and the comparative compound, the percentages with the rate of a maximum reaction to make the GTP[γ-^35S] bonds saturated in the presence of the compound being set at 100%, and the rate of the reaction of the GTP[γ-^35S] bonds in the absence of the compound being set at 0% were used, a non-linear regression curve was plotted, and a concentration to cause an agonist action operating 50% of the maximum reaction was defined as an EC50 value (nM).

[3] = target: T1, human S1P1; assay: Ca2+ influx assay using human S1P1 expressing cell (Test Example 1, Method 2); format: cell-based; conditions: method 2, Ca2+ influx, human S1P1 expressing CHO cell (values with *); read-out: A: EC50, in vitro S1P1 agonist action (value with *)
Procedure: as §1
(Method 2) Method for Evaluation of Receptor Agonist Action by Ca^2+ Influx Assay Using Human S1P1 Expressing Cell
The in vitro S1P1 agonist action of the compound of the present invention was evaluated by the increase in the Ca^2+ concentration in a human S1P1 expressing cell. A cDNA encoding a human S1P1 was cloned from a human colorectal cDNA library and introduced to an expression vector pcDNA3.1 to construct a S1P1-pcDNA3.1. Then, by Lipofectamine 2000 (GIBCO), the S1P1-pcDNA3.1 was transfected into a CHO cell, and cultured in a Ham's F-12 culture medium containing 10% fetal bovine serum, 100 U/mL penicillin, 100 μg/mL streptomycin, and 1 mg/mL G418 disulfate, to obtain a stable, G418-resistant strain. The cultured human S1P1 expressing cells were isolated in a 1 mM EDTA.2Na-containing PBS and suspended in a Ham's F-12 culture medium containing 10% fetal bovine serum, 100 U/mL penicillin, and 100 μg/mL streptomycin. This cell suspension was dispensed to a 96-well plate at 50000 cells/well, and cultured at a CO2 incubator (5% CO2, 37° C.) overnight. The culture medium was replaced with a calcium-sensitive fluorescent reagent (FLIPR (registered trademark) calcium 3 assay kit, molecular device)-containing loading buffer (Hank's balance salt solution, 20 mM HEPES, 2.5 mM probenecid) and left stand at a CO2 incubator (5% CO2, 37° C.) for 1 hour. The plate was set at a Functional Drug Screening System FDSS6000 (Hamamatsu Photonics K. K.), and persistently measured 124 times every 1.02 second at an excitation wavelength of 480 nm. The test compound (final concentration 10^−12 to 10^−5 M) was added at the same time as the 12th measurement, and the change in the Ca^2+ concentration in cells was evaluated by the change in the fluorescent strength. For evaluation of the human S1P1 agonist action of the compound of the present invention and the comparative compound, the percentages with the rate of a maximum reaction to make the increase in the Ca^2+ concentration in cells saturated after the addition of the compound being set at 100% and the rate of the increase in the Ca^2+ concentration in cells by the addition of a vehicle alone being set at 0% were used, a non-linear regression curve was plotted, and a concentration to cause an agonist action operating 50% of the maximum reaction was defined as an EC50 value (nM).

[4] = 4 hours after administration, read-out: B: ED50 4 h, reduction of number of lymphocytes in peripheral blood
[5] = 24 hours after administration, read-out: B: ED50 24 h, reduction of number of lymphocytes in peripheral blood

## C[C@H](Oc1ccc(COc2cc(F)c3c(c2)OCC(CN2CCC=C(C(=O)O)C2)=C3)cc1Cl)C(F)(F)F.Cl [Ex 144]
[1]; [4]
  ED50: 0.16 mg/kg

## CC1(C(=O)O)CCN(CC2=Cc3c(F)cc(OCc4cc(-c5ccccc5)c(C(F)(F)F)s4)cc3OC2)C1 (stereo not shown) [Ex 66]
[2]
  EC50: 10 nM
[1]; [4]
  ED50: 0.21 mg/kg

## CS(=O)(=O)NC(=O)C1CCN(CC2=Cc3c(F)cc(OCc4ccc(C(F)(F)F)cc4C(F)(F)F)cc3OC2)C1.Cl (stereo not shown) [Ex 1, 1-[(7-{[2,4-bis(trifluoromethyl)benzyl]oxy}-5-fluoro-2H-chromen-3-yl)methyl]-N-(methylsulfonyl)pyrrolidine-3-carboxamide hydrochloride]
[2]
  EC50: 1.7 nM
[1]; [4]
  ED50: 0.016 mg/kg

## Cl.O=C(O)C1=CCCN(CC2=Cc3ccc(OCc4ccc(C5CCCC5)c(C(F)(F)F)c4)cc3OC2)C1 [Ex 216]
[3]
  EC50: 7.8 nM
[1]; [5]
  ED50: 0.25 mg/kg

## Cl.O=C(O)[C@H]1CCCN(CC2=Cc3c(F)cc(OCc4ccc(OCC(F)(F)F)c(C(F)(F)F)c4)cc3OC2)C1 [Ex 236]
[3]
  EC50: 32 nM
[1]; [5]
  ED50: 0.1 mg/kg

## Cl.O=C(O)[C@@H]1CCCN(CC2=Cc3c(F)cc(OCc4ccc(OC(CF)CF)c(C(F)(F)F)c4)cc3OC2)C1 [Ex 212]
[3]
  EC50: 1.1 nM
[1]; [5]
  ED50: 0.21 mg/kg

## Cc1c(OCc2ccc(C(F)(F)F)cc2C(F)(F)F)ccc2c1OCC(CN1CCC(C(=O)O)C1)=C2.Cl (stereo not shown) [Ex 137]
[2]
  EC50: 9.4 nM
[1]; [4]
  ED50: 0.11 mg/kg

## Cl.O=C(O)C1=CCN(CC2=Cc3ccc(OCc4ccc(OC(CF)CF)c(Cl)c4)cc3OC2)CC1 [Ex 181]
[3]
  EC50: 0.68 nM
[1]; [5]
  ED50: 0.29 mg/kg

## CCc1sc(COc2cc(F)c3c(c2)OCC(CN2CCC(C(=O)O)C2)=C3)cc1-c1ccccc1 (stereo not shown) [Ex 56]
[2]
  EC50: 2.3 nM
[1]; [4]
  ED50: 0.067 mg/kg

## O=C(O)C1CN(CC2=Cc3c(F)cc(OCc4ccc(C(F)(F)F)cc4C(F)(F)F)cc3OC2)C1 [Ex 34]
[2]
  EC50: 2 nM
[1]; [4]
  ED50: 0.01 mg/kg

## Cl.O=C(O)[C@@H]1CCCN(CC2=Cc3ccc(OCc4ccc(OCC(F)(F)F)c(C(F)(F)F)c4)cc3OC2)C1 [Ex 160]
[3]
  EC50: 2.2 nM
[1]; [5]
  ED50: 0.26 mg/kg

## O=C(O)C1(F)CCN(CC2=Cc3c(F)cc(OCc4cc(-c5ccccc5)c(C(F)(F)F)s4)cc3OC2)C1 (stereo not shown) [Ex 74]
[2]
  EC50: 5.6 nM
[1]; [4]
  ED50: 0.59 mg/kg

## O=C(O)C1CN(CC2=C(Cl)c3ccc(OCc4ccc(C(F)(F)F)cc4C(F)(F)F)cc3OC2)C1 [Ex 25]
[2]
  EC50: 1.7 nM
[1]; [4]
  ED50: 0.013 mg/kg

## CC1(C(=O)O)CCN(CC2=Cc3c(F)cc(OCc4ccc(-n5cccc5)c(C(F)(F)F)c4)cc3OC2)C1 (stereo not shown) [Ex 89]
[2]
  EC50: 6.1 nM
[1]; [4]
  ED50: 0.16 mg/kg

## Cl.O=C(O)[C@@H]1CCCN(CC2=Cc3c(F)cc(OCc4ccc(OC(CF)CF)c(Cl)c4)cc3OC2)C1 [Ex 223]
[3]
  EC50: 1.1 nM
[1]; [5]
  ED50: 0.32 mg/kg

## CC1CN(CC2=Cc3c(F)cc(OCc4cc(-c5ccccc5)c(C(F)(F)F)s4)cc3OC2)CC1C(=O)O (stereo not shown) [Ex 69]
[2]
  EC50: 6.3 nM
[1]; [4]
  ED50: 0.087 mg/kg

## Cl.O=C(O)C1CN(CC2=Cc3ccc(C#CCCc4ccccc4)cc3OC2)C1 [Ex 132]
[2]
  EC50: 22 nM
[1]; [4]
  ED50: 0.16 mg/kg

## O=C(O)C1CCN(CC2=Cc3c(F)cc(OCc4ccc(-c5ccccc5)c(C(F)(F)F)c4)cc3OC2)C1 (stereo not shown) [Ex 62]
[2]
  EC50: 2.5 nM
[1]; [4]
  ED50: 0.21 mg/kg

## O=C(O)C1CN(CC2=Cc3ccc(OCc4cc(-c5ccccc5)c(Br)s4)cc3OC2)C1 [Ex 43]
[2]
  EC50: 6.2 nM
[1]; [4]
  ED50: 0.26 mg/kg

## O=C(O)C1=CCCN(CC2=Cc3c(F)cc(OCc4ccc(C(F)(F)F)cc4C(F)(F)F)cc3OC2)C1 [Ex 85]
[2]
  EC50: 11 nM
[1]; [4]
  ED50: 0.19 mg/kg

## Cl.O=C(O)C1=CCCN(CC2=Cc3c(F)cc(OCc4ccc(OC(CF)CF)c(Cl)c4)cc3OC2)C1 [Ex 143]
[1]; [4]
  ED50: 0.32 mg/kg

## O=C(O)[C@H]1CCN(CC2=Cc3c(F)cc(OCc4ccc(-n5cccc5)c(C(F)(F)F)c4)cc3OC2)C1 [Ex 109]
[2]
  EC50: 5.4 nM
[1]; [4]
  ED50: 0.26 mg/kg

## C[C@H](Oc1ccc(COc2ccc3c(c2)OCC(CN2CCC=C(C(=O)O)C2)=C3)cc1Cl)C(F)(F)F.Cl [Ex 149]
[2]
  EC50: 8.7 nM
[1]; [5]
  ED50: 0.12 mg/kg

## Cl.O=C(O)C1CCN(CC2=Cc3c(F)cc(OCc4ccc(C(F)(F)F)cc4C(F)(F)F)cc3OC2)C1 (stereo not shown) [Ex 45]
[2]
  EC50: 1.5 nM
[1]; [4]
  ED50: 0.1 mg/kg

## C[C@H](Oc1ccc(COc2cc(F)c3c(c2)OCC(CN2CCC=C(C(=O)O)C2)=C3)cc1C(F)(F)F)C(F)(F)F.Cl [Ex 141]
[2]
  EC50: 5.9 nM
[1]; [4]
  ED50: 0.099 mg/kg

## CC(C)Oc1ccc(COc2ccc3c(c2)OCC(CN2CCC=C(C(=O)O)C2)=C3)cc1C(F)(F)F.Cl [Ex 178]
[2]
  EC50: 55 nM
[1]; [5]
  ED50: 0.12 mg/kg

## CC1(C(=O)O)CN(CC2=Cc3ccc(OCc4ccc(-n5cccc5)c(C(F)(F)F)c4)cc3OC2)C1 [Ex 116]
[2]
  EC50: 8.5 nM
[1]; [4]
  ED50: 0.1 mg/kg

## CCCc1ccc(COc2ccc3c(c2)OCC(CN2CCC(C(=O)O)C2)=C3)c(OC)c1 (stereo not shown) [Ex 31]
[2]
  EC50: 1.2 nM
[1]; [4]
  ED50: 0.065 mg/kg

## Cl.O=C(O)C1CCN(CC2=Cc3ccc(OCc4ccc(C(F)(F)F)cc4C(F)(F)F)cc3OC2)C1 (stereo not shown) [Ex 44]
[2]
  EC50: 3.7 nM
[1]; [4]
  ED50: 0.37 mg/kg

## CC1(C(=O)O)CN(CC2=Cc3c(F)cc(OCc4cc(-c5ccccc5)c(C(F)(F)F)s4)cc3OC2)C1 [Ex 81]
[2]
  EC50: 4.6 nM
[1]; [4]
  ED50: 0.25 mg/kg
